Read-outs that look alike come from different tables or passages of the source.
Legend:
Vaccinia Virus = type: cell-based; settings: cell culture, three days, VR >0.5 definite, <0.5 slight antiviral activity
[1] = tested on: Type 2 Herpes Simplex Virus; type: cell-based; settings: cell culture, three days, VR >0.5 definite, <0.5 slight antiviral activity
[2] = tested on: Type 1 Herpes Simplex Virus; type: cell-based; settings: cell culture, three days, VR >0.5 definite, <0.5 slight antiviral activity
[3] = cited from earlier work
equine abortion virus = settings: for Infected, Treated Surv/Total: 21 days observation; for Toxicity Control Surv/Total: twice daily for four days; for Survival Increase p: Fisher's exact test; for Infected, Treated Mean Survival Time: animals dying on or before day 21; for Mean Surv. Increase p: t test
[4] = tested on: Herpes simplex, strain 123; assay: Anti-herpes encephalitis activity in mice, intraperitoneal treatment; settings: for Percent Survivor Number Increase: twice daily for 8 days from 4 hr post virus, 21 days; for Survivor Increase P: probability value (chi square analysis)
[5] = tested on: spectrum of virus infections; settings: cited from earlier work
[6] = clinical testing as antiviral agent; cited from earlier work
[7] = eventually to uric acid; cited from earlier work

## O=c1c2ncn([C@@H]3O[C@H](COP(=O)(O)O)[C@@H](O)[C@@H]3O)c2ncn1O [9-β-D-Arabinofuranosyl-N^1-hydroxyhypoxanthine-5'-phosphate]
Vaccinia Virus
  virus rating (VR): 0.1-0.4
[1]
  virus rating (VR): 0.0-0.6
[2]
  virus rating (VR): 0.2-0.7

## Nc1ncnc2c1ncn2[C@@H]1O[C@H](CO)[C@@H](O)[C@@H]1O [9-β-D-Arabinofuranosyladenine, 9-β-D-arabinofuranosyladenine]
[3]
  solubility (in words): low solubility
Equine abortion virus; Expt. 1, 125 mg/kg/day i.p.
  Infected, Treated Surv/Total: 8/9
  Toxicity Control Surv/Total: 2/2
  Survival Increase p: < 0.001
  Infected, Treated Mean Survival Time: 13 days
Equine abortion virus; Expt. 1, 250 mg/kg/day i.p.
  Infected, Treated Surv/Total: 0.8
  Toxicity Control Surv/Total: 2/3
  Infected, Treated Mean Survival Time: 9.2 days
  Mean Surv. Increase p: < 0.001
Equine abortion virus; Expt. 2, 62.5 mg/kg/day i.p.
  Infected, Treated Surv/Total: 10/10
  Survival Increase p: < 0.001
  Infected, Treated Mean Survival Time: > 21 days
  Mean Surv. Increase p: < 0.001
Equine abortion virus; Expt. 2, 250 mg/kg/day i.p.
  Infected, Treated Surv/Total: 3/10
  Toxicity Control Surv/Total: 2/3
  Survival Increase p: 0.09
  Infected, Treated Mean Survival Time: 12 days
  Mean Surv. Increase p: < 0.001
[4]; 62.5 mg/kg/day i.p.
  Percent Survivor Number Increase: 0%
  Survivor Increase P: > 0.03
[4]; 125 mg/kg/day i.p.
  Percent Survivor Number Increase: 30%
  Survivor Increase P: < 0.05
[4]; 250 mg/kg/day i.p.
  Percent Survivor Number Increase: 40%
  Survivor Increase P: < 0.05
[4]; 250 mg/kg/day i.p., twice daily for 8 days, 21 days observation
  Survivors/Total (Toxicity Controls): 5/5
[4]; i.p., Table II
  effectiveness of ara-A compared with ara-IMP: less effective
[5]
  reported antiviral effectiveness: effective agent against a spectrum of virus infections
[6]
  human toxic symptoms: mild nausea, transient leukopenia and central nervous system involvement which causes illusions and hallucinations

## COP(=O)(O)OC[C@H]1O[C@@H](n2cnc3c(=O)[nH]cnc32)[C@@H](O)[C@@H]1O [9-β-D-Arabinofuranosylhypoxanthine-5'-O-methylphosphate]
Vaccinia Virus
  virus rating (VR): 0.4
[1]
  virus rating (VR): 0.0
[2]
  virus rating (VR): 0.4-0.7

## O=c1[nH]cnc2c1ncn2[C@@H]1O[C@@H]2COP(=O)(O)O[C@H]2[C@@H]1O [9-β-D-Arabinofuranosylhypoxanthine-3' ,5'-cyclic phosphate]
Vaccinia Virus
  virus rating (VR): 0.7
[2]
  virus rating (VR): 0.7-1.1

## Nc1ncnc2c1ncn2[C@@H]1O[C@H](COP(=O)(O)O)[C@@H](O)[C@@H]1O [9-β-D-arabinofuranosyladenine-5'-phosphate]
[2]
  virus rating (VR): 1.3
[7]
  metabolic degradation: rapidly degraded in the metabolic system (eventually to uric acid)

## O=c1[nH]c(=O)n([C@H]2C[C@H](O)[C@@H](CO)O2)cc1I [IDU, 5'-iodo-2'-deoxyuridine]
[3]
  maximum solubility: about 0.1 weight percent
  solubility (in words): extremely low solubility

## O=c1[nH]cnc2c1ncn2[C@@H]1O[C@H](CO)[C@@H](OP(=O)(O)O)[C@@H]1O [9-β-D-Arabinofuranosylhypoxanthine-3'-phosphate]
[2]
  virus rating (VR): 1.0

Reference: patent US4093714A, “9β-D-Arabinofuranosylpurine nucleotides and method of use” (ICN Pharmaceuticals, Inc., priority 1974, dated 1978)
